The source made the active and inactive calls. No cut-off for these calls is given here.
Tests used:
[1] = target: T1, Nitric oxide synthase, inducible (Mus musculus) (UniProt P29477); experiment: Inhibition of iNOS-mediated nitric oxide production in LPS-stimulated mouse RAW 264.7 cells treated 2 hrs before LPS challenge measured after 18 hrs by Griess reaction method relative to control; assay type: cell-based; parameters: concentration or dose not given beside the values; conditions: concentration not given here
T1 sequence (whole entry): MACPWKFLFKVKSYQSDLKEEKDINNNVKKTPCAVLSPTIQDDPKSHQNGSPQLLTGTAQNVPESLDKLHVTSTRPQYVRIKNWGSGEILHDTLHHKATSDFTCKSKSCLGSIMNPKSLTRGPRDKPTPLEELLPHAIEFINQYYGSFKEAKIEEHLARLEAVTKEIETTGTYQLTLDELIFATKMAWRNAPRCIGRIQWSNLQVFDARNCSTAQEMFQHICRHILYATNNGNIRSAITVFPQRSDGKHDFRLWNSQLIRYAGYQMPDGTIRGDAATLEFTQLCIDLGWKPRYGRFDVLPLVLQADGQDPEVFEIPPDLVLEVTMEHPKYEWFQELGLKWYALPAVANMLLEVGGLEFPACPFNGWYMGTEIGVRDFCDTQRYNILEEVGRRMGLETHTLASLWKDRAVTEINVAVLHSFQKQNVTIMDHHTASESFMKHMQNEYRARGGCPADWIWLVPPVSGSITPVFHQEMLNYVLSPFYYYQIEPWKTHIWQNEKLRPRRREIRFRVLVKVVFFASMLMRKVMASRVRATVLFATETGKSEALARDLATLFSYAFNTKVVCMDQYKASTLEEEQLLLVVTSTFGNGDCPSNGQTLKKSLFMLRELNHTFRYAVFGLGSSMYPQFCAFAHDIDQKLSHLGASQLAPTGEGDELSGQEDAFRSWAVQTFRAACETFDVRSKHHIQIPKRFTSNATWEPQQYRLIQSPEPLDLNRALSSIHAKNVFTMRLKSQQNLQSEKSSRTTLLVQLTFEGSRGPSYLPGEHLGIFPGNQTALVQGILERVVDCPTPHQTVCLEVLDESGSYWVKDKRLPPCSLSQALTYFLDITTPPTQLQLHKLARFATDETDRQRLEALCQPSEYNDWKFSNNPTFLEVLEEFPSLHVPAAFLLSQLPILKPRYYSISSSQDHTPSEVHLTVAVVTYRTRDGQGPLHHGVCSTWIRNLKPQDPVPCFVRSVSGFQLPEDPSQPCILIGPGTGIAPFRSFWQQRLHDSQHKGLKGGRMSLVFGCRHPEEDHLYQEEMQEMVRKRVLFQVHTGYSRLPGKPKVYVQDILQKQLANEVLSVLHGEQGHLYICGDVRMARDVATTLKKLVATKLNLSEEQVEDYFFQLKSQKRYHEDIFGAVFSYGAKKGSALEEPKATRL

RAW264.7 [2] = experiment: cells; conditions: Mus musculus, RAW264.7, 24 h
Description: Cytotoxicity against mouse RAW264.7 cells after 24 hrs by MTT assay

[3] = target: T2, Nitric oxide synthase, inducible (Mus musculus, UniProt P29477)
T2 sequence (P29477 whole entry): T1 sequence (whole entry)

[4] = target: T2, Nitric oxide synthase, inducible; remark: listed apart in the source
Description: Inhibition of iNOS in LPS-stimulated mouse RAW 264.7 cells after 2 hrs by fluorescence plate reader analysis

RAW264.7 [5] = experiment: Cytotoxicity against LPS-stimulated mouse RAW264.7 cells after 24 hrs by MTT assay; assay type: cell-based; conditions: RAW264.7, 24 h
[6] = target: T3, Prostaglandin G/H synthase 2 (Mus musculus, UniProt Q05769); experiment: Inhibition of COX2-mediated PGE2 production in LPS-stimulated mouse RAW 264.7 cells after 24 hrs by ELISA; assay type: cell-based
T3 sequence (Q05769 whole entry): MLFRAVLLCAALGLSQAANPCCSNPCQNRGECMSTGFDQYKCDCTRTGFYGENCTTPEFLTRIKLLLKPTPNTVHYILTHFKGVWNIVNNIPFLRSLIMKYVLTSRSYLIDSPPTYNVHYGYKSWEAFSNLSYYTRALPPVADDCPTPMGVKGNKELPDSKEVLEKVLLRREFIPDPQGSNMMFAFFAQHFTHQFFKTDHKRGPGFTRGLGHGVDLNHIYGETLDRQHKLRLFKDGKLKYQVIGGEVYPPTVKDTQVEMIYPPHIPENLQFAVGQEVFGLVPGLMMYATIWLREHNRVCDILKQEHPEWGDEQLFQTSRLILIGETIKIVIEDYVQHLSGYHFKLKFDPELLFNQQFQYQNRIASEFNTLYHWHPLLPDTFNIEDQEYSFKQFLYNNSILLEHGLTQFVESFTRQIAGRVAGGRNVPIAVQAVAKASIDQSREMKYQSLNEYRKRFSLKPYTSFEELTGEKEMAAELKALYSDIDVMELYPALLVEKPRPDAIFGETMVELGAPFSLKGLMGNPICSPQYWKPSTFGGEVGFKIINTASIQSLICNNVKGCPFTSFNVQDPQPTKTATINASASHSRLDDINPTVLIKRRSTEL

[7] = Half life in Sprague-Dawley rat at 50 mg/kg, po; assay type: ADME, organism-based; parameters: dose 50 mg/kg, route oral; conditions: in vivo
[8] = Tmax in Sprague-Dawley rat at 50 mg/kg, po; assay type: ADME, organism-based; parameters: dose 50 mg/kg, route oral; conditions: in vivo
[9] = Oral bioavailability in Sprague-Dawley rat at 50 mg/kg; assay type: ADME, organism-based; conditions: in vivo
[10] = Cmax in Sprague-Dawley rat at 50 mg/kg, po; assay type: ADME, organism-based; parameters: dose 50 mg/kg, route oral; conditions: in vivo
[11] = Half life in Sprague-Dawley rat at 10 mg/kg, iv; assay type: ADME, organism-based; parameters: dose 10 mg/kg, route intravenous; conditions: in vivo
RAW264.7 [12] = experiment: Inhibition of LPS-induced iNOS protein expression in mouse RAW264.7 cells treated 2 hrs before LPS challenge measured after 18 hrs by Western blotting; assay type: functional, cell-based
Rattus norvegicus [13] = experiment: AUC (0 to t) in Sprague-Dawley rat at 50 mg/kg, po; assay type: ADME, organism-based, Plasma; parameters: dose 50 mg/kg, route oral; conditions: in vivo
Mus musculus [14] = experiment: Antiinflammatory activity in ICR mouse assessed as inhibition of carrageenan-induced paw edema at 50 mg/kg, po administered 30 mins before carrageenan challenge measured up to 5 hrs; assay type: functional
Rattus norvegicus [15] = experiment: Antiarthritic activity in heat-killed mycobacterium tuberculosis-induced Lewis rat arthritis model assessed as increase in boy weight at 50 mg/kg, po QD for 28 relative to control; assay type: functional
RAW264.7 [16] = experiment: Inhibition of LPS-induced COX2 protein expression in mouse RAW264.7 cells at 12 to 24 uM treated 2 hrs before LPS challenge measured after 18 hrs by Western blotting; assay type: functional, cell-based
[17] = Cmax in Sprague-Dawley rat at 10 mg/kg, iv; assay type: ADME, organism-based; parameters: dose 10 mg/kg, route intravenous; conditions: in vivo
[18] = Tmax in Sprague-Dawley rat at 10 mg/kg, iv; assay type: ADME, organism-based; parameters: dose 10 mg/kg, route intravenous; conditions: in vivo
Mus musculus [19] = experiment: Antiinflammatory activity against acetic acid-induced vascular permeability in ICR mouse assessed as evans blue peritoneal leakage at 10 to 50 mg/kg, ip administered 30 mins before acetic acid challenge measured after 50 mins; assay type: functional, organism-based
Rattus norvegicus [20] = experiment: Antiarthritic activity in heat-killed mycobacterium tuberculosis-induced Lewis rat arthritis model assessed as leukocytes infiltreated into synovial tissue and synovial fluid of joints at 50 mg/kg, po QD for 28 using hematoxylin and eosin staining by microscopic analysis; assay type: functional, organism-based; parameters: dose 50 mg/kg
Rattus norvegicus [21] = experiment: AUC (0 to t) in Sprague-Dawley rat at 10 mg/kg, iv; assay type: ADME, organism-based, Plasma; parameters: dose 10 mg/kg, route intravenous; conditions: in vivo
Mus musculus [22] = experiment: Antiinflammatory activity in ICR mouse assessed as inhibition of carrageenan-induced paw edema at 10 mg/kg, po administered 30 mins before carrageenan challenge measured up to 5 hrs; assay type: functional
Mus musculus [23] = species: Mus musculus; conditions: ICR, 10 mg/kg
Description: Antiinflammatory activity against acetic acid-induced vascular permeability in ICR mouse assessed as evans blue peritoneal leakage at 10 mg/kg, ip administered 30 mins before acetic acid challenge measured after 50 mins

Rattus norvegicus [24] = experiment: Antiarthritic activity in heat-killed mycobacterium tuberculosis-induced Lewis rat arthritis model assessed as decrease in arthritic score at 50 mg/kg, po QD for 28; assay type: functional, organism-based; parameters: dose 50 mg/kg

Work on O=C(COc1ccc(/C=C2\SC(=O)NC2=O)cc1)Nc1ccc(F)c(F)c1 yielded an inhibition [1] of 83.9%, an IC50 (RAW264.7 [2]) greater than 100 µM and an IC50 [3] of 13.9 µM. The IC50 [4] was 34.1 µM, the IC50 (RAW264.7 [5]) was greater than 100 µM and the IC50 [6] was 7.12 µM.
In the case of CN(C(=O)COc1ccc(/C=C2\SC(=O)NC2=O)cc1)c1ccccc1, the inhibition [1] is reported as 51%.
O=C(COc1ccc(/C=C2\SC(=O)NC2=O)cc1)Nc1ccc(Cl)cc1Cl showed an inhibition [1] of 10%.
Work on CC(=O)c1ccc(NC(=O)COc2ccc(/C=C3\SC(=O)NC3=O)cc2)cc1 yielded an inhibition [1] of 10.2%.
Work on O=C(COc1ccc(/C=C2\SC(=O)NC2=O)cc1)Nc1cccc(Cl)c1 yielded a half-life [7] of 130 min, a Tmax [8] of 10.8 min and a bioavailability [9] of 18.1%. For the same compound, the Cmax [10] was 15.3 µM, the half-life [11] was 16.8 min and the inhibition [1] was 80.9%. The inhibition (RAW264.7 [12]) was “Dose-dependent effect”, the AUC (Rattus norvegicus [13]) was 10 uM.hr/L and the inhibition in vivo at 50 mg/kg (Mus musculus [14]) was 36.2%. For the same compound, the IC50 (RAW264.7 [2]) was greater than 100 µM, the Activity (Rattus norvegicus [15]) was 15.1% and the inhibition (RAW264.7 [16]) was “Active”. It also gave an IC50 [3] of 8.66 µM, a Cmax [17] of 27 µM and an IC50 [4] of 23.6 µM. The Tmax [18] was 4.8 min, the IC50 (RAW264.7 [5]) was greater than 100 µM and the inhibition (Mus musculus [19]) was “inactive”. For the same compound, the Activity (Rattus norvegicus [20]) was “Active”, the IC50 [6] was 4.16 µM and the AUC (Rattus norvegicus [21]) was 11.05 uM.hr/L. The inhibition (Mus musculus [22]) was “Active” and the inhibition in vivo at 10 mg/kg (Mus musculus [22]) was 33.3%.
In the case of O=C(COc1ccc(/C=C2\SC(=O)NC2=O)cc1)Nc1ccc(F)cc1, the inhibition [1] is reported as 57.9%.
Work on O=C(COc1ccc(/C=C2\SC(=O)NC2=O)cc1)Nc1cccc2ccccc12 yielded an inhibition [1] of 70.9%, an IC50 (RAW264.7 [2]) of 62.3 µM and an IC50 [3] of 20.9 µM. It also gave an IC50 [4] of 40 µM, an IC50 (RAW264.7 [5]) of 55 µM and an IC50 [6] of 16.1 µM.
In the case of Cc1ccc(NC(=O)COc2ccc(/C=C3\SC(=O)NC3=O)cc2)nc1, the inhibition [1] is reported as 12.5%.
COc1ccc(NC(=O)COc2ccc(/C=C3\SC(=O)NC3=O)cc2)cc1 showed an inhibition [1] of 0.6%.
For O=C(COc1ccc(/C=C2\SC(=O)NC2=O)cc1)Nc1cc(Cl)cc(Cl)c1, the inhibition [1] was 72%, the IC50 (RAW264.7 [2]) was greater than 100 µM and the IC50 [3] was 26.1 µM. For the same compound, the IC50 [4] was 57.4 µM, the IC50 (RAW264.7 [5]) was greater than 100 µM and the IC50 [6] was 14.8 µM.
In the case of O=C(COc1ccc(/C=C2\SC(=O)NC2=O)cc1)Nc1cccc(F)c1, the inhibition [1] is reported as 41.5%.
Compound O=C(COc1ccc(/C=C2\SC(=O)NC2=O)cc1)Nc1ccc2ccccc2c1 has an inhibition [1] of 45.1%.
O=C(COc1ccc(/C=C2\SC(=O)NC2=O)cc1)Nc1ccc(C(F)(F)F)cc1 gave an inhibition [1] of 26.6%.
With Cc1ccc(NC(=O)COc2ccc(/C=C3\SC(=O)NC3=O)cc2)cc1 the inhibition [1] was 38.4%.
With O=C(COc1ccc(/C=C2\SC(=O)NC2=O)cc1)Nc1ccccn1 the inhibition [1] was 14.6%.
In the case of O=C(COc1ccc(/C=C2\SC(=O)NC2=O)cc1)NCc1ccccc1, the inhibition [1] is reported as 41.6%.
For O=C(COc1ccc(/C=C2\SC(=O)NC2=O)cc1)Nc1ccc(Cl)cc1, the inhibition [1] was 9.7%.
With COc1ccc2c(c1)c(CC(=O)O)c(C)n2C(=O)c1ccc(Cl)cc1 [INDOMETHACIN] the inhibition (Mus musculus [23]) was “Active”, the inhibition [1] was 63.2% and the IC50 (RAW264.7 [2]) was greater than 100 µM. For the same compound, the IC50 (RAW264.7 [5]) was greater than 100 µM and the Activity (Rattus norvegicus [24]) was “Active”.
O=C(COc1ccc(/C=C2\SC(=O)NC2=O)cc1)Nc1ccc(F)c(Cl)c1 gave an inhibition [1] of 36%.
Work on O=C(COc1ccc(/C=C2\SC(=O)NC2=O)cc1)NC1CCCCC1 yielded an inhibition [1] of 47.8%.
For O=C(COc1ccc(/C=C2\SC(=O)NC2=O)cc1)Nc1ccccc1, the inhibition [1] was 55.3%.
COc1ccc(NC(=O)COc2ccc(/C=C3\SC(=O)NC3=O)cc2)cc1OC showed an inhibition [1] of 16.2%.
Compound O=C(COc1ccc(/C=C2\SC(=O)NC2=O)cc1)Nc1ccc(Br)cc1 has an inhibition [1] of 23.7%.
